The subject of one data set is CXCL5. Description: Keratinocyte CXCL5 expression in UVB-exposed footpad after topical treatment. The settings on record: 5 mM GSK205 topical. Type of data set: in vivo, mouse. How it is done: GSK205 topical treatment: A viscous solution of 68% EtOH/5% glycerol plus 1 mM or 5 mM GSK205 (none for control) was applied to hindpaws by rubbing in 20 μL, applied at time-points 1 hour and again 10 min before UV exposure.
Routine procedures were followed as described previously (Chen et al., 2009). Mice were perfused transcardially with 30 mL PBS, followed by 30 mL 4% paraformaldehyde. Tissues, including the L5 DRGs (bilateral), and footpad preparations, were dissected and post-fixed in 4% paraformaldehyde. Tissue blocks were further cryoprotected in 30% sucrose in PBS for 24-48 hours. For mouse TRPV4, keratin-specific antibodies, phospho-ERK, IL-6, IL-1β, CXCL5 and caspase-1, tissue was prepared as frozen blocks and subsequently sectioned on a cryostat. For CD68, CD15 (neutrophil elastase) and CD3, mouse skin was prepared by 2% PFA perfusion. […]

The next data set addresses T1, TRPV4 (Mus musculus, UniProt Q9EPK8).
T1 construct: endogenous in cells; host or cells: primary mouse epidermal keratinocytes (1° MK), wild type
Nature of the data set: GSK101-evoked Ca++ transient in 1° MK. The data set is classed as cell-based. The settings on record: 5 nM GSK101; GSK205 20 μM. How it is done:
Ca++ imaging of mouse 1° MK in response to chemical activation of TRPV4 was conducted after loading with 2 μM fura2-AM, following a ratiometric Ca2+ imaging protocol with 340/380 nm […] for dual excitation. Ratios of emissions were acquired at 0.5 Hz. ΔR/R0 was determined as the fraction of the increase of a given ratio over baseline ratio, divided by baseline ratio. For stimulation of cells with UVB, where fura-2 was not suitable because of the proximity of stimulation with 340/380 nm and 295 nm, 2 μM fluo4-AM was used instead. Ca++ imaging was carried out at 488 nm excitation, acquisition of emissions at 0.5 Hz, expressed as ΔF/F0. In the custom-built UV optical system, UV LEDs were capped with a ball lens, a transparent optical window in the shape of a hemispherical lens (FIG. 2B). The LED output optical beam focused at 15-20 mm from the lens, with a spot diameter of approximately 1.5-2.0 mm (FIG. 2C). […] The thermal equilibration stage was set for physiological temperature. We confirmed the non-thermal nature of UVB stimulation using the customized 295 nm LED device in a dedicated experiment (FIG. 2D), thus confirming the specific modality of stimulation as UVB.

Another data set relates to IL-1β. Nature of the data set: IL-1β secretion by UVB-exposed 1° MK (ELISA). The data set is classed as cell-based, mouse. The settings on record: 5 μM GSK205. The protocol: Before UV irradiation, culture media was replaced with PBS. The cells were then irradiated at a dose of 50 mJ/cm^2 with UVB. 24 hours later, supernatants were assayed using IL-1β ELISA (R&D Systems, Minneapolis, Minn.).

The next data set concerns ET1. Description: ET1 secretion by non-stimulated 1° MK (ELISA). The data set is classed as cell-based, mouse.
Data set [1] in a line: UVB permeation of paw-pad skin (sunscreen test). Details: species or system mouse. The conditions noted are these: topically applied; GSK205 5 mM. The protocol:
The UV LED was powered with 20 mA of current, resulting in 500 μW of optical power in a circular focal spot 1.5 mm in diameter, with 70% of the total flux in a 0.5 mm beam radius. The UV optical power transmitted through the sample was detected by a Hamamatsu 5127-66BR UV detector, and the output of the photodetector was measured using a Keithley 236 source measure unit. Next, the foot-pad epidermis of a mouse was measured for UV transmission by placing it on a quartz coverslip and exposure to the UV beam. The vehicle-control group was treated with the alcohol and glycerol solution only. Another control group consisted of a commercially-available SPF100 preparation sunscreen in form of a cream, which was applied similar to the vehicle-control. The data for the GSK205 and sunscreen was normalized to this control data.

The results in this text go back to patent US11014896B2, “TRPA1 and TRPV4 inhibitors and methods of using the same for organ-specific inflammation and itch” (Duke University, priority 2014, dated 2021).

Entries after “also recorded” stand apart in the source; their conditions may differ.

T1 sequence (Q9EPK8 whole entry): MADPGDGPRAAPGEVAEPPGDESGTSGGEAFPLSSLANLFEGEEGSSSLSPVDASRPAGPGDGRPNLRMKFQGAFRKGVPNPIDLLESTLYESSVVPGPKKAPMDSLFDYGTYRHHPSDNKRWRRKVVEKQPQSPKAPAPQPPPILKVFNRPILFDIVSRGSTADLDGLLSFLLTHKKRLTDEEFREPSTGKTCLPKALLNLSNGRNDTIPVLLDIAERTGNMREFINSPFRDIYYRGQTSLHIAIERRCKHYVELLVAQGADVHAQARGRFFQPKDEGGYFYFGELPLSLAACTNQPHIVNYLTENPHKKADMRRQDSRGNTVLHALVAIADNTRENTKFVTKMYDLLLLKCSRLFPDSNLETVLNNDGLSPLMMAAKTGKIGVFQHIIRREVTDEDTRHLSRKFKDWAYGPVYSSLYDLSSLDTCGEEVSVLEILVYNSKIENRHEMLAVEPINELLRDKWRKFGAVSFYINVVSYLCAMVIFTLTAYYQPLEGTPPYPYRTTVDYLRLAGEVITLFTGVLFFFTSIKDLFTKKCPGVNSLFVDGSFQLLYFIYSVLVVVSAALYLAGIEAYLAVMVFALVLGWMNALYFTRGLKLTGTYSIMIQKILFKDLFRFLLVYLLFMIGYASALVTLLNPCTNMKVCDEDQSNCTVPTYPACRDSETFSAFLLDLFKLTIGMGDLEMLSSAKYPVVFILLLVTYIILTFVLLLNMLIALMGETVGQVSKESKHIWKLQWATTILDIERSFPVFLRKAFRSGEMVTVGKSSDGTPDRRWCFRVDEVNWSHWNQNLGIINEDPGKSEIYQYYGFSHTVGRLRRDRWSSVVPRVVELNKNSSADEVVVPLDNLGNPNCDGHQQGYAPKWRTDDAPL

As for `CN(CCc1ccc(Nc2nc(-c3cccnc3)cs2)cc1)Cc1ccccc1` [GSK205], in the data set on CXCL5, the “keratinocyte expression of CXCL5 in UVB-exposed footpad” value was “Comparably significant blocks; also recorded: attenuates keratinocyte expression of CXCL5”. In addition, at TRPV4, the “GSK101-evoked Ca++ transient” value was “eliminated; also recorded: completely blocked”. In addition, the “UVB-induced increase in IL-1β secretion” value in the data set on IL-1β is reported as “completely eliminated; also recorded: prevention of increase in IL-1β secretion”. The “ET1 secretion into supernatant (relative ET1 concentration)” value with ET1 was “significant down-regulation”. Further, in data set [1], the “UVB permeation of paw-pad skin vs. vehicle control” value is on record as “equal UVB permeation; also recorded: absence of a change”.
